The term IC50 denotes the midpoint of a concentration-inhibition curve. A lower IC50 goes with higher potency.

The target of series [1] is T1, CYP1A2 (Homo sapiens, UniProt P05177).
T1 construct: recombinant human enzyme in membrane preparation (Promega P450-Glo CYP1A2 Screening System)
T1 sequence (P05177 2-516): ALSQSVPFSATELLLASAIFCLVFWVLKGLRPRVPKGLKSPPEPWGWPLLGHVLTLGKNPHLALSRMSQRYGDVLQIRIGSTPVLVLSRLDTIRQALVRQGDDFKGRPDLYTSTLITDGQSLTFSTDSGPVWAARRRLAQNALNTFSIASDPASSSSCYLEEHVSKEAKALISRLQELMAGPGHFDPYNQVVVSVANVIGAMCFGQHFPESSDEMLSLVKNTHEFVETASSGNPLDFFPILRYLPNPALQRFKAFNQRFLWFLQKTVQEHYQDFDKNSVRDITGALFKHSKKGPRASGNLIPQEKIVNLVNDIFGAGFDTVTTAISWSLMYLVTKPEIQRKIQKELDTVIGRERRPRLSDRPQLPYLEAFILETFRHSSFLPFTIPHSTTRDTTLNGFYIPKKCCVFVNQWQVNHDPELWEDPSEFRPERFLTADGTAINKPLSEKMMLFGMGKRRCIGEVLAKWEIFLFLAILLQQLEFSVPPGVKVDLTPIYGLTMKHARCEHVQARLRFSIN
As to the kind of experiment: P450-Glo luminescence turnover. The format is biochemical. The settings on record: NADPH regeneration system; potassium phosphate buffer; […] °C; luminogenic substrate.

Series [2] addresses CYP2C19 (Homo sapiens, UniProt P33261). As to the kind of experiment: P450-Glo luminescence inhibition assay.

CYP2C19, sequence (P33261 whole entry): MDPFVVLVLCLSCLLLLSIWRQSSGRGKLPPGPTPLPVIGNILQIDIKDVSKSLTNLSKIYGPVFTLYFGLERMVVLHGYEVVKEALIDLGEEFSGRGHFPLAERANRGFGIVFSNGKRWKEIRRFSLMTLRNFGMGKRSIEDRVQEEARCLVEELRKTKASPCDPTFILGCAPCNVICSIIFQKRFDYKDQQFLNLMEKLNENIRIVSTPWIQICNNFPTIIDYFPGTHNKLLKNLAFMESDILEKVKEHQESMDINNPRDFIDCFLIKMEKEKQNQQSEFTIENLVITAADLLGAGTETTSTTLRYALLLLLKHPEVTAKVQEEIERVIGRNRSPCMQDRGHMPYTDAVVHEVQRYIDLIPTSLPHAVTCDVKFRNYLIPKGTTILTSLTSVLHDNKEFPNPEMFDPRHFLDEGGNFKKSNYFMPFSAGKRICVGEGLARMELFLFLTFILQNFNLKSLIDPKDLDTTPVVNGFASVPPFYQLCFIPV

As to `COc1ccc2nc(C3=NC(C(=O)O)CS3)sc2c1` (centres unmarked) [Luciferin-ME], the P450-Glo luminescence turnover entry in series [1] is recorded as “Luciferin-ME (CYP1A2) as luminogenic substrate”.
On to `CCCCCCCCCC(=O)N(C)C` [NDA, N,N-dimethyldecanamide], for which inhibition in series [2] was half-maximal at 4.05 µM (IC50).
